Reference: patent publication US20160317468A1, “USES OF CANNABIDIOL FOR TREATMENT OF INFANTILE SPASMS” (priority 2015, published 2016)

Tests used:
infantile spasms [1] = conditions: high-dose study; intramuscular ACTH therapy; cited from earlier work
infantile spasms [2] = experiment: Clinical trial of a composition comprising cannabidiol in subjects with infantile spasms, overnight video-EEG on day 14; assay type: in vivo; conditions: human subjects 6 to 36 months who failed hormonal therapy and vigabatrin, CBD titrated to 40 mg/kg/day TID, control receives placebo
Protocol: Human subjects with video-EGG confirmed infantile spasms, between the ages of 6 months and 36 months, who have failed adequate treatments with hormonal therapy (adrenocorticotropic hormone (ACTH) (e.g., 150 IU/m2/day×2 weeks) and/or prednisolone (e.g., 8 mg/kg/day×2 weeks) and vigabatrin (e.g., 150 mg/kg/day×2 weeks)) will receive a composition comprising cannabidiol (“CBD”) according to the treatment schedule of Table 5. The control group receives placebo.
The 40 mg/kg/day treatment is optionally extended for up to one year in the cannabidiol group for subjects who display a response (FIG. 1). The cannabidiol dosage is tapered in the cannabidiol group according to Table 6.

| Compound | patients with cessation of seizures and normal EEG patterns (infantile spasms [1]) | symptoms of infantile spasms on overnight video-EEG, cannabidiol group relative to control group (infantile spasms [2]) |
| --- | --- | --- |
| adrenocorticotropic hormone (SYSMEHFRWGKPVGKKRRPVKVYPNGAEDESAEAFPLEF; Corticotropin; UniProt P01189 138-176, looked up) [ACTH] | 13 of the 15 | – |
| C=C(C)[C@@H]1CCC(C)=C[C@H]1c1c(O)cc(CCCCC)cc1O [cannabidiol, (−)-trans-2-p-mentha-1,8-dien-3-yl-5-pentylresorcinol] | – | reduced symptoms of infantile spasms |
